Experiments:
[1] = tested on: Rattus norvegicus; experiment: Effect on rotational behavior in rat after i.p. administration of 1 ug/kg; assay type: functional
[2] = tested on: Rattus norvegicus; experiment: Effect on rotational behavior in rat after i.p. administration of 0.1 ug/kg; assay type: functional

`NC(=O)[C@H]1CS[C@@H]2C[C@@](Cc3ccccc3)(NC(=O)[C@@H]3CCCN3)C(=O)N12` gave an Increase [1] of 30%.

`CC(C)C[C@@]1(NC(=O)[C@@H]2CCCN2)C[C@H]2SC[C@H](C(N)=O)N2C1=O` was tested, and the Increase [1] was 44%.

In the case of `NC(=O)[C@H]1CS[C@@H]2C[C@@H](NC(=O)[C@@H]3CCCN3)C(=O)N12`, the Increase [2] is reported as 23%.

`CCCC[C@@]1(NC(=O)[C@@H]2CCCN2)C[C@H]2SC[C@H](C(N)=O)N2C1=O` was tested, and the Increase [2] was 56%.
